These results are taken from patent US20250099478A1, “PLASMA KALLIKREIN INHIBITORS” (Merck Sharp & Dohme LLC, priority 2022, published 2025).

In test [1] the target is T1, human factor XIa (Homo sapiens, UniProt P03951).
T1 construct: with human (0.04 nM) factor XIa
Kind of test: Factor XIa Assay. It counts as biochemical. To be noted: human factor XIa 0.04 nM, substrate GPR-AFC, 25° C.

The target in test [2] is T2, Human plasma kallikrein (Homo sapiens, UniProt P03952).
T2 construct: yields a heavy chain (371 amino acids) and a light chain (248 amino acids); purchased Enzyme Research Laboratories
Kind of test: Plasma Kallikrein Assay. Type of test: biochemical. Particulars: purified Human plasma kallikrein 0.5 nM, substrate Acetyl-K-P-R-AFC; read-out: PKal IC50. A digest of the protocol: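 Purified human plasma kallikrein (0.5 nM) hydrolysing fluorogenic Acetyl-K-P-R-AFC ([…]) in 50 mM HEPES pH 7.4, 150 mM NaCl, 5 mM CaCl2, 0.1% PEG 8000, at rt or 37 °C after enzyme–inhibitor equilibration. IC50 from four-parameter logistic fit; Ki via Cheng–Prusoff.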

T1 sequence (P03951 388-625 limits assumed): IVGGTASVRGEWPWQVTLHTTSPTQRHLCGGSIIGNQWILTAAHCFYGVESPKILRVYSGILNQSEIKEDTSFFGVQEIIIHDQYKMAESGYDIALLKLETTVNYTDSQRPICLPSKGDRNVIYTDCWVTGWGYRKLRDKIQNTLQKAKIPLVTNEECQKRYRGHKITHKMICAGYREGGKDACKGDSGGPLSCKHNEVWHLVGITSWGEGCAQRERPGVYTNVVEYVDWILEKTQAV
T1 sequence (P03951 19-387 partner limits assumed): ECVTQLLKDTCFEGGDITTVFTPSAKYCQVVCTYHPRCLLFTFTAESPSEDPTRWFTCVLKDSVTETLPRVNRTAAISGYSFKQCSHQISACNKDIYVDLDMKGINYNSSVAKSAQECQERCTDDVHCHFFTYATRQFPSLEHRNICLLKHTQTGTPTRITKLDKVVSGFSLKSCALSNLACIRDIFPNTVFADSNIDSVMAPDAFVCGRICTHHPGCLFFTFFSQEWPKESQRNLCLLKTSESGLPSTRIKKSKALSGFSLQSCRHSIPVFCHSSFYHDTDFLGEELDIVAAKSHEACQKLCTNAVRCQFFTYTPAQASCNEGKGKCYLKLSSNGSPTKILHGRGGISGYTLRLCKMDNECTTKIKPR
T2 sequence (P03952 391-638 limits assumed): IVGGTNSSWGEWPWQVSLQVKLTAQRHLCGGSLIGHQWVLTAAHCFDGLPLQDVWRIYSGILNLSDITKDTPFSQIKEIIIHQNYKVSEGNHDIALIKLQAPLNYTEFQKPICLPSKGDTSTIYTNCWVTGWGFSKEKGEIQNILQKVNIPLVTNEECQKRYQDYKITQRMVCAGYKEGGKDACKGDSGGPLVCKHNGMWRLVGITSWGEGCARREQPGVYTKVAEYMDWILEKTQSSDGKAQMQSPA
T2 sequence (P03952 20-390 partner limits assumed): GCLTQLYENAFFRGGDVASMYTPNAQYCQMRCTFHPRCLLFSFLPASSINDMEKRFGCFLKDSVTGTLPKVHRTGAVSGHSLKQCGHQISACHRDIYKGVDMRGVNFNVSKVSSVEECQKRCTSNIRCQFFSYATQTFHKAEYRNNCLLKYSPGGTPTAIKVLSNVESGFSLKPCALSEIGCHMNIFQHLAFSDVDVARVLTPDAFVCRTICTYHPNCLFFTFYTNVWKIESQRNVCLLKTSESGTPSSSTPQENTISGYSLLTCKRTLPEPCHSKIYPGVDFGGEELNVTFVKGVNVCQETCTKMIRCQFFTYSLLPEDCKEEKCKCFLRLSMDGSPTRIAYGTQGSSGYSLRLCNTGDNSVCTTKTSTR

In general, IC50 refers to the concentration that inhibits the measured activity by half. As for `COCC(c1ccccc1)n1cc(C(=O)N2CCC[C@@]3(C2)OC(=O)Nc2ccc(Cl)c(F)c23)cn1` (stereo partly drawn) [Example 14, (4R)-6-Chloro-5-fluoro-1′-(1-(2-methoxy-1-phenylethyl)-1H-pyrazole-4-carbonyl)spiro[benzo[d][1,3]oxazine-4,3′-piperidin]-2(1H)-one], the figures for the IC50 in test [1] and in test [2] were 1.53 µM and 0.0162 µM, respectively.
`O=C1Nc2ccc(Cl)c(F)c2[C@@]2(CCCN(C(=O)c3nnc(C(CC(F)(F)F)c4ccccc4)[nH]3)C2)O1` (single isomer, unassigned) [Example 98]: the results for the half-inhibitory concentration (IC50) in test [1] and in test [2] were 0.362 µM and 0.0013 µM, respectively.
The like results for `CCC(c1ccc2c(c1)OCO2)n1cc(C(=O)N2CCC[C@@]3(C2)OC(=O)Nc2ccc(Cl)c(F)c23)cn1` (single isomer, unassigned) [Example 33] were, in that order, 4.76 µM and 0.0042 µM.
The matching figures for `O=C1Nc2ccc(Cl)c(F)c2[C@@]2(CCCN(C(=O)c3cnn([C@](CO)(CC4CC4)c4ccc(F)cc4)c3)C2)O1` [Example 34, (R)-6-Chloro-1′-(1-((R)-1-cyclopropyl-2-(4-fluorophenyl)-3-hydroxypropan-2-yl)-1H-pyrazole-4-carbonyl)-5-fluorospiro[benzo[d][1,3]oxazine-4,3′-piperidin]-2(1H)-one]: 0.27 µM and 0.0131 µM.
`CCC(c1ccnc(C(F)(F)F)c1)n1cc(C(=O)N2CCC[C@@]3(C2)OC(=O)Nc2ccc(Cl)c(F)c23)cn1` (single isomer, unassigned) [Example 37]: the IC50 is 1.45 µM in test [1] and 0.0026 µM in test [2].
`O=C1Nc2ccc(Cl)c(F)c2[C@@]2(CCCN(C(=O)c3cnn([C@H](CC4CC4)c4ccccc4)c3)C2)O1` (single isomer, unassigned) [Example 2]: the IC50 in test [1] amounted to 0.206 µM; in test [2] it was 0.0032 µM.
Consider `O=C1Nc2ccc(Cl)c(F)c2[C@@]2(CCCN(C(=O)c3cnn(C(CC4CC4)c4ccccc4)c3)C2)O1` (single isomer, unassigned) [Example 29], for which the IC50 in test [1] amounted to 1.57 µM; in test [2], 0.0069 µM.
As to `CCC(c1ccc(F)cc1)n1cc(C(=O)N2CCC[C@@]3(C2)OC(=O)Nc2ccc(Cl)c(F)c23)cn1` (single isomer, unassigned) [Example 26], the concentration for half-maximal inhibition (IC50) was determined as 7.64 µM in test [1] and 0.0069 µM in test [2].
As to `CCC(c1ccc2c(c1)OCO2)n1cc(C(=O)N2CCC[C@@]3(C2)OC(=O)Nc2ccc(Cl)c(F)c23)cn1` (single isomer, unassigned) [Example 32], the figures for the IC50 in test [1] and in test [2] were 1.79 µM and 0.0046 µM, respectively.
With `O=C1Nc2ccc(Cl)c(F)c2[C@@]2(CCCN(C(=O)c3nnc(C(CC(F)(F)F)c4cccc(Cl)c4)[nH]3)C2)O1` (single isomer, unassigned) [Example 100], the IC50 in test [1] worked out at 1.45 µM; in test [2], 0.0022 µM.
With `CCC(c1ccc2cnccc2c1)n1cc(C(=O)N2CCC[C@@]3(C2)OC(=O)Nc2ccc(Cl)c(F)c23)cn1` (single isomer, unassigned) [Example 35], the concentration for half-maximal inhibition (IC50) stood at 1.02 µM in test [1] and 0.0026 µM in test [2].
For the compound `CCC(c1ccc2c(c1)COC2)c1nnc(C(=O)N2CCC[C@@]3(C2)OC(=O)Nc2ccc(Cl)c(F)c23)[nH]1` (single isomer, unassigned) [Example 112], the IC50 in test [1] worked out at 1.56 µM; in test [2], 0.001 µM.
Turning to `CC1(C)CN(C(=O)c2nnc(C(C)(C)c3ccccc3)[nH]2)C[C@]2(C1)OC(=O)Nc1ccc(Cl)c(F)c12` [Example 95, (R)-6-Chloro-5-fluoro-5′,5′-dimethyl-1′-(5-(2-phenylpropan-2-yl)-4H-1,2,4-triazole-3-carbonyl)spiro[benzo[d][1,3]oxazine-4,3′-piperidin]-2(1H)-one], the IC50 in test [1] is 3.01 µM; in test [2] it was 0.0214 µM.
Regarding `CC[C@@H](c1cc(C)c2nc[nH]c2c1)c1n[nH]c(C(=O)N2CCC[C@@]3(C2)OC(=O)Nc2ccc(Cl)c(F)c23)n1` [Example 109, (R)-6-Chloro-5-fluoro-1′-(3-((S)-1-(4-methyl-1H-benzo[d]imidazol-6-yl)propyl)-TH-1,2,4-triazole-5-carbonyl)spiro[benzo[d][1,3]oxazine-4,3′-piperidin]-2(1H)-one], the IC50 in test [1] was 0.646 µM; in test [2], 0.0013 µM.
